{
  "source": "patent US12612386B2",
  "about": "“Heteroaryl-triazole compounds as pesticides” (Bayer Aktiengesellschaft, priority 2020, dated 2026)",
  "type_in_all_cases": "in vivo",
  "key": {"[1]": {"tested_on": "cattle tick larvae (Rhipicephalus microplus), strain Parkhurst, resistant against synthetic pyrethroids", "assay": "Rhipicephalus (Boophilus) microplus in-vitro contact test, larval cattle tick", "conditions": "5 μg/cm^2 (=500 g/ha), after 48 hours", "in_short": "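Larvae exposed by contact to a dried acetone film on glass; a 900 ppm solution yields 5 μg/cm^2. Scoring after 48 h at 27° C. counts dead plus moribund larvae as efficacy.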"}, "[2]": {"tested_on": "green peach aphid (Myzus persicae)", "assay": "Myzus persicae spray test (MYZUPE)", "conditions": "120 h, 100 g/ha, after 5 days", "in_short": "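Chinese cabbage leaf disks infested with all instars of Myzus persicae were sprayed with compound formulated in acetone/dimethylformamide and diluted in water with 1000 ppm alkylarylpolyglycol ether emulsifier. Percent mortality was scored after 5 days, 100% meaning all aphids killed.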"}, "[3]": {"tested_on": "adult brown dog ticks (Rhipicephalus sanguineus)", "assay": "Rhipicephalus sanguineus in-vitro contact test, adult brown dog ticks", "conditions": "48 h, read-out: efficacy (ticks dead or moribund)", "in_short": "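Compound in acetone was coated onto inner walls of glass tubes by rotation (2 h, 30 rpm); 900 ppm gives 5 μg/cm^2. After drying, 5-10 adult ticks were enclosed per tube at room temperature; after 48 h, heat-escape test at 45-50° C scored dead/moribund ticks as % efficacy.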"}, "[4]": {"tested_on": "green peach aphid (Myzus persicae)", "assay": "whole plant or invertebrate", "conditions": "120 h", "protocol": "Solvent: 100 parts by weight acetone\nTo produce a suitable preparation of active compound, 1 part by weight of active compound is mixed with the stated amount of solvent, and the concentrate is diluted with water to the desired concentration.\n50 μL compound solution is filled in microtiter plates and 150 μL IPL41 insect medium (33%+15% sugar) is added to obtain a total volume of 200 μL per well. Afterwards the plates are sealed with parafilm through which a mixed population of the green peach aphid (Myzus persicae) can suck on the compound preparation.\nAfter 5 days mortality in % is determined. 100% means all aphids have been killed and 0% means none of the aphids have been killed.\nMyzus persicae—Oral Test (MYZUPE Oral)"}, "[5]": {"tested_on": "adult flies Musca domestica strain WHO-N", "assay": "Musca domestica test (MUSCDO surface treatment & contact assay)", "conditions": "surface concentration 20 mg/m^2, 30 min exposure, 24 hours after contact, read-out: efficacy (mortality)", "protocol": "Musca domestica Test (MUSCDO Surface Treatment & Contact Assay)\nSolvent: Aceton+2000 ppm rapeseed oil methyl ester (RME)\nThis solution is pipetted onto a glazed tile and after evaporation of the acetone, adult flies of the species Musca domestica strain WHO-N are placed onto the dried surface. The exposure time is 30 minutes. Mortality in percent (%) is determined 24 hours after contact of the insects to the treated surface. 100% mortality means that all tested insects are dead, whereas 0% means that no insect died."}, "[6]": {"tested_on": "adult engorged female ticks (Rhipicephalus microplus)", "assay": "Rhipicephalus (Boophilus) microplus injection test", "conditions": "4 μg/animal, egg deposition after 7 days", "protocol": "Rhipicephalus (Boophilus) Microplus—Injection Test\nSolvent: dimethyl sulfoxide\nTo produce a suitable preparation of active compound, 10 mg of active compound are dissolved in 0.5 mL solvent, and the concentrate is diluted with solvent to the desired concentration.\nFive adult engorged female ticks (Rhipicephalus microplus) are injected with 1 μL compound solution into the abdomen. The ticks are transferred into replica plates and incubated in a climate chamber.\nAfter 7 days egg deposition of fertile eggs is monitored. Eggs where fertility is not visible are stored in a climate chamber till hatching after about 42 days. An efficacy of 100% means all eggs are infertile; 0% means all eggs are fertile."}, "[7]": {"tested_on": "larvae of the banded cucumber beetle (Diabrotica balteata)", "assay": "Diabrotica balteata spray test", "conditions": "168 h, 100 g/ha (=32 μg/well), after 7 days, read-out: efficacy (seedling growth)", "in_short": "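Germinated wheat seeds on agar (5 per well) were sprayed with compound formulated in acetone/DMF and diluted in water with 1000 ppm emulsifier. Each unit was then infested with 10–20 larvae. Efficacy % was scored after 7 days as seedling growth relative to an untreated, uninfested control (100% = normal growth).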"}, "[8]": {"tested_on": "fall armyworm larvae (Spodoptera frugiperda)", "assay": "whole plant or invertebrate", "conditions": "168 h", "in_short": "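Maize leaf sections sprayed with compound in acetone/DMF with alkylarylpolyglycol ether emulsifier diluted in water, then infested with fall armyworm larvae once dry. Mortality (%) scored after 7 days; 100% = all caterpillars killed.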"}},
  "data": [
    {"smiles": "C[C@H](NC(=O)c1cc(Br)cc(OC(F)(F)F)c1)c1ncnn1-c1cc(C#N)ncn1", "note": "[I-1, 3-bromo-N-{(1S)-1-[1-(6-cyanopyrimidin-4-yl)-1H-1,2,4-triazol-5-yl]ethyl}-5-(trifluoromethoxy)benzamide]", "values": [
      {"measurement": "efficacy (larvae dead or moribund)", "setting": "[1]", "result": 100, "unit": "%"},
      {"measurement": "mortality at 100 g/ha", "setting": "[2]", "result": 90, "unit": "%"},
      {"measurement": "pest or weed control at 5 µg/cm2, 500 g/ha", "setting": "[3]", "result": 100, "unit": "%"},
      {"measurement": "mortality at 0.16 ppm", "setting": "[4]; MYZUPE oral, 0.16 ppm, 5 dat (Table 3), read-out: % Efficacy", "result": 100, "unit": "%"},
      {"measurement": "mortality at 4 ppm", "setting": "[4]; po", "result": 100, "unit": "%"},
      {"measurement": "mortality at 20 mg/m2", "setting": "[5]", "result": "80 to 100", "unit": "%"},
      {"measurement": "efficacy (infertile eggs)", "setting": "[6]", "result": 100, "unit": "%"},
      {"measurement": "pest or weed control at 32 µg/disc, 100 g/ha", "setting": "[7]", "result": 80, "unit": "%"},
      {"measurement": "mortality at 100 g/ha", "setting": "[8]", "result": 100, "unit": "%"},
      {"measurement": "Emax at 20 g/ha", "setting": "[8]; SPODFR, 20 g ai/ha, 7 dat (Table 3), read-out: % Efficacy", "result": 100, "unit": "%"}
    ]}
  ]
}
